Measurements reported in article PMC6272711, “5-Methoxyquinoline Derivatives as a New Class of EZH2 Inhibitors” (Molecules, 2015).
Entries after “also recorded” stand apart in the source; their conditions may differ. Where two headings read alike, the source gives them in different places.

Key:
HCT15 = assay: MTT cell growth inhibition, HCT15; format: cell-based, human; conditions: means of at least three measurements
MDA-MB-231 = assay: MTT cell growth inhibition, MDA-MB-231; format: cell-based; conditions: Homo sapiens, MDA-MB-231, 96 h, read-out: IC50 MDA-MB-231
SMYD3 = molecular target: T1, SMYD3 (Homo sapiens, UniProt Q9H7B4); assay: Enzyme selectivity assay, SMYD3; format: biochemical; conditions: means of at least three measurements
T1 sequence (Q9H7B4 1-428): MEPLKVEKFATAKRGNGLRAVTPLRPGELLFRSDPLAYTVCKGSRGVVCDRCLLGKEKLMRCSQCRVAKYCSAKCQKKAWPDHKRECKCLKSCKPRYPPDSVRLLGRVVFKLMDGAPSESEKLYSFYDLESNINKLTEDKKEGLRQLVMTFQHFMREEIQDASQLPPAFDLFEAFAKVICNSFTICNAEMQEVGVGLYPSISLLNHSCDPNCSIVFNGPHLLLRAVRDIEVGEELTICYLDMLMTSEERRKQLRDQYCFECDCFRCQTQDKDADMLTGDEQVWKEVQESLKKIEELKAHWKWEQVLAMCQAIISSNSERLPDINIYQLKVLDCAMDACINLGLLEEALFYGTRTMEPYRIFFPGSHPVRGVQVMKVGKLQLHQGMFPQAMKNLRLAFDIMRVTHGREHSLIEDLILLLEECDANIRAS

G9a = molecular target: T2, G9a (Homo sapiens, UniProt Q96KQ7); assay: Enzyme selectivity assay, G9a; format: biochemical; conditions: means of at least three measurements
T2 sequence (Q96KQ7 1-1210): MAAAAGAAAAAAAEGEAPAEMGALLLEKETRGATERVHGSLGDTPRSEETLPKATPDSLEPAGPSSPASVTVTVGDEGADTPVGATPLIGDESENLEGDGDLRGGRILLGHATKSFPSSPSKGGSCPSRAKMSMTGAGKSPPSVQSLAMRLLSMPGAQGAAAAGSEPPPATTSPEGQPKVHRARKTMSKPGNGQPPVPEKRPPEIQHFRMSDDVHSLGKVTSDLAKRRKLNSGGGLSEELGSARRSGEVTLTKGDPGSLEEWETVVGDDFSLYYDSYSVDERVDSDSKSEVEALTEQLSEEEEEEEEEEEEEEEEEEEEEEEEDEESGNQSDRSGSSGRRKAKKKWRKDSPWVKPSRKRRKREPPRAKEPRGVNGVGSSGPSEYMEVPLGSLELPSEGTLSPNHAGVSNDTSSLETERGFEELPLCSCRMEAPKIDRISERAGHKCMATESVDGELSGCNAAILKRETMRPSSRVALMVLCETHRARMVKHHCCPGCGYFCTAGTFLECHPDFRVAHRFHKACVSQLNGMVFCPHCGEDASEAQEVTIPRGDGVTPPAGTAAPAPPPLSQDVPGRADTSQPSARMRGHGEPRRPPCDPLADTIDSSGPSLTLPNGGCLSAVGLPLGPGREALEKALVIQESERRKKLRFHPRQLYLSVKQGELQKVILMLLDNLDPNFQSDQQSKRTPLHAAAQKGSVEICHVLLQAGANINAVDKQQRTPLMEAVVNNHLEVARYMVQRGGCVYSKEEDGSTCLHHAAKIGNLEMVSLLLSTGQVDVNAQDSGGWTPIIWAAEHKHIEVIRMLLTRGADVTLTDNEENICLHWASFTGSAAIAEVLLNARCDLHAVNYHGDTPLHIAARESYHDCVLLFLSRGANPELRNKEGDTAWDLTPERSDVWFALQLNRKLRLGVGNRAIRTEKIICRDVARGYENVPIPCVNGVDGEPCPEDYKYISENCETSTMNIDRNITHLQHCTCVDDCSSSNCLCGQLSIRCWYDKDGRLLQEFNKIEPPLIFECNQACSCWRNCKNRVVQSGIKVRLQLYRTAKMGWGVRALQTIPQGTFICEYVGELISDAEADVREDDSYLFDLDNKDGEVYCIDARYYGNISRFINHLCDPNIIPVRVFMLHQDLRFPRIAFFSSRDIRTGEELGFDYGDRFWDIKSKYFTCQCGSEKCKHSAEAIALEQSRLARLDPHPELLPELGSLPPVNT

SUV39H1 = molecular target: T3, SUV39H1 (Homo sapiens, UniProt O43463); assay: Enzyme selectivity assay, SUV39H1; format: biochemical; conditions: means of at least three measurements
T3 sequence (O43463 1-412): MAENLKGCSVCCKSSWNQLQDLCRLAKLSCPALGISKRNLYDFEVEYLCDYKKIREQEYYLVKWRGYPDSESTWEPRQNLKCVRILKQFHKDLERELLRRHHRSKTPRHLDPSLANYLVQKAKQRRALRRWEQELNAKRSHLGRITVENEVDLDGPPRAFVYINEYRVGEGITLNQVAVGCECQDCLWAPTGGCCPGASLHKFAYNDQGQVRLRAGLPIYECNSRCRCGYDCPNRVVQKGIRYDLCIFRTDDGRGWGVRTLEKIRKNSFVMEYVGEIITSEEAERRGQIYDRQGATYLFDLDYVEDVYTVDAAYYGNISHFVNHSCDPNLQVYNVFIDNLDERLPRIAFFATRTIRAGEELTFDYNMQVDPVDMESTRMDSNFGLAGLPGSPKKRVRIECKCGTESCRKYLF

SETDB1 = SETDB1 (Homo sapiens, UniProt Q15047); assay: Enzyme selectivity assay, SETDB1; format: biochemical; conditions: means of at least three measurements
PRMT1 = PRMT1 (Homo sapiens, UniProt Q99873); assay: Enzyme selectivity assay, PRMT1; format: biochemical; conditions: means of at least three measurements
Chain of PRMT1 (Q99873 whole entry, species assumed): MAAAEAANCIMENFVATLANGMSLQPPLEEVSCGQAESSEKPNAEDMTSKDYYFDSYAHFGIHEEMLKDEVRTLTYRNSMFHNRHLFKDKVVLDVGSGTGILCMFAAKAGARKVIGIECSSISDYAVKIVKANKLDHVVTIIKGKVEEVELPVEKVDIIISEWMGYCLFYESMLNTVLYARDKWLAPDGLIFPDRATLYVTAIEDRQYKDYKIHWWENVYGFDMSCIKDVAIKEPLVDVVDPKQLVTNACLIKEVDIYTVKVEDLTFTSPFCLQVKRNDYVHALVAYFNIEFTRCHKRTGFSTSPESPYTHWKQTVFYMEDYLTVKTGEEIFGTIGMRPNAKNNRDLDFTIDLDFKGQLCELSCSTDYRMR

SETD8 = molecular target: T4, SETD8 (Homo sapiens, UniProt Q9NQR1); assay: Enzyme selectivity assay, SETD8; format: biochemical; conditions: means of at least three measurements
T4 sequence (Q9NQR1 1-393): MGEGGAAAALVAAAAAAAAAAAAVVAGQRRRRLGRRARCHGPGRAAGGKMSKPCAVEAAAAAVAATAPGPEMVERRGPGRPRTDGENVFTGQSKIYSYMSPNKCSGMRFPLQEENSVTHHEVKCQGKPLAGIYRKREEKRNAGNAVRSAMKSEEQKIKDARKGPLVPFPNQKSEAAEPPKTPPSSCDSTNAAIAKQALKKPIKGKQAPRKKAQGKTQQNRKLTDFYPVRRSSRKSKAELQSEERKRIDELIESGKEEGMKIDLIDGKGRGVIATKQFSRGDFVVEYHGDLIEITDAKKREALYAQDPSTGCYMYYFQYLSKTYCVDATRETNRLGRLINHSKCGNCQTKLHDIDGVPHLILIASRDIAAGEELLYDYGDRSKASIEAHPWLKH

[1] = system: H3K27me3 level in MDA-MB-231 cell line; assay: Western blotting assay of H3K27me3 status; format: cell-based, human; conditions: MDA-MB-231 cells, treatment for 72 h, western blot, total H3 loading control
Description: The main catalytic activity of EZH2 is methylating histone 3 lysine 27 (H3K27), so evaluation of H3K27me3 was conducted through a western blotting assay.
Figure 3 Analysis of H3K27 methylation in MDA-MB-231 cell line treated with 1 and 5k. Evaluation of H3K27me3 following treatment for 72 h. Total H3 is shown as a loading control.
The western blotting assay of H3K27 status was performed as previously described.

COc1cccc2nc(N3CCCN(C)CC3)cc(NC3CCN(C)CC3)c12 [Compound 5k, 5-Methoxy-2-(4-methyl-1,4-diazepan-1-yl)-N-(1-methylpiperidin-4-yl)quinolin-4-amine]
IC50 (HCT15; Homo sapiens, HCT-15, 96 h, read-out: IC50 HCT15, MTT, treatment 96 h): 5.6 µM
IC50 (HCT15; read-out: IC50 HCT15, MTT, treatment 96 h): 7.6 ± 0.46 µM
IC50 (MDA-MB-231): 2.45 ± 0.24 µM
IC50 (SMYD3): 35.4 ± 1.97 µM
IC50 (G9a): 82.6 ± 2.23 µM
IC50 (SUV39H1): 21.2 ± 0.28 µM
IC50 (SETDB1): 27 ± 1.36 µM
IC50 (PRMT1): 28.8 ± 1.25 µM
IC50 (SETD8): 40 ± 2.71 µM
H3K27me3 level [1]: decreased global H3K27me3 level in cells; also recorded: obviously down-regulated
